The values below come from patent publication US10294202B2, “Pyrrolidinones as herbicides” (FMC Corporation, priority 2013, dated 2019).

One assay deals with monochoria. Briefly: Test F flood (paddy) test. It is filed as in vivo, Monochoria vaginalis. The conditions noted are these: 21 d, scale 0-100. An excerpt:
(§1) Three plastic pots (ca. 16-cm diameter) per rate were partially filled with sterilized Tama silt loam soil comprising a 35:50:15 ratio of sand, silt and clay and 2.6% organic matter. Separate plantings for each of the three pots were as follows. Seeds from the U.S. of monochoria (Monochoria vaginalis), sedge, umbrella (small-flower umbrella sedge, Cyperus difformis), bulrush, […] bulrush, Scirpus juncoides), and […] (purple […] coccinea), were planted into one 16-cm pot for each rate. Seeds from the U.S. of flatsedge, rice (rice flatsedge, Cyperus iria), sprangletop, Brdd. (bearded sprangletop, Leptochloa fascicularis), one stand of 9 or 10 water seeded rice seedlings (Rice, W.S. Jap, Oryza sativa cv. 'Japonica-[…]' or Rice, W.S. Ind, 'Indica'), and two stands of 3 or 4 seedlings of rice, transplanted (transplanted rice, Oryza sativa cv. 'Japonica-[…]') were planted into one 16-cm pot for each rate. Seeds from the U.S. of barnyardgrass (Echinochloa crus-galli), […] (common […], Alisma plantago-aquatica), and watergrass, late (late watergrass, Echinochloa oryzicola) were planted into one 16-cm pot for each rate. Plantings were sequential so that crop and weed species were at the 2.0 to 2.5-leaf stage at time of treatment. Potted plants were grown in a greenhouse with day/night temperature settings of 30/27° C., and supplemental balanced lighting was provided to maintain a 16-h photoperiod. Test pots were maintained in the greenhouse until test completion. At time of treatment, test pots were flooded to 3 cm above the soil surface, treated by application of test compounds directly to the paddy water, and then maintained at that water depth for the duration of the test. Effects of treatments on rice and weeds were visually evaluated by comparison to untreated controls after 21 d. Plant response ratings, summarized in Table F, are based on a scale of 0 to 100 where 0 is no effect and 100 is complete control. A dash (-) response means no test result.

The next assay concerns sprangletop, Brdd. Kind of assay: Test F flood (paddy) test. The conditions noted are these: 21 d, scale 0-100. The format is in vivo, Leptochloa fascicularis.
From the text: as §1

The next assay has as its system foxtail, green. Briefly: Test D pre-/postemergence herbicide test. It is filed as in vivo, Setaria viridis. As to conditions: for Plant response rating: Foxtail, Green, scale 0 to 100; for Plant response rating, Foxtail, Green: scale 0 to 100 (0 no effect, 100 complete control). An excerpt:
Seeds of plant species selected from bluegrass (annual bluegrass, Poa annua), blackgrass (Alopecurus myosuroides), canarygrass (littleseed canarygrass, Phalaris minor), chickweed (common chickweed, Stellaria media), galium (catchweed bedstraw, Galium aparine), bromegrass, downy (downy bromegrass, Bromus tectorum), field poppy (Papaver rhoeas), field violet (Viola arvensis), foxtail, green (green foxtail, Setaria viridis), deadnettle (henbit deadnettle, Lamium amplexicaule), ryegrass, Italian (Italian ryegrass, Lolium multiflorum), kochia (Kochia scoparia), lambsquarters (Chenopodium album), oilseed rape (Brassica napus), pigweed (Amaranthus retroflexus), chamomile (scentless chamomile, Matricaria inodora), Russian thistle (Salsola kali), speedwell (bird's-eye speedwell, Veronica persica), barley, spring (spring barley, Hordeum vulgare), wheat, spring (spring wheat, Triticum aestivum), buckwheat, wild (wild buckwheat, Polygonum convolvulus), mustard, wild (wild mustard, Sinapis arvensis), oat, wild (wild oat, Avena fatua), radish, wild (wild radish, Raphanus raphanistrum), […]), barley, winter (winter barley, Hordeum vulgare), and wheat, winter (winter wheat, Triticum aestivum) were planted into a silt loam soil and treated preemergence with test chemicals formulated in a non-phytotoxic solvent mixture which included a surfactant. At the same time, these species were planted in pots containing Redi-Earth® planting medium (Scotts Company, 14111 Scottslawn Road, Marysville, Ohio 43041) comprising spaghnum peat moss, vermiculite, wetting agent and starter nutrients and treated with postemergence applications of the test chemicals formulated in the same manner. Plants ranged in height from 2 to 18 cm (1- to 4-leaf stage). Treated plants and controls were maintained in a controlled growth environment for 7 to 21 days after which time all species were compared to controls and visually evaluated. Plant response ratings, summarized in Table D, are based on a scale of 0 to 100 where 0 is no effect and 100 is complete control. A dash (-) response means no test result.

`O=C1NCC(c2cccc(C(F)(F)F)c2)C1C(=O)Nc1ccccc1F` (racemic) [Compound 3]: the entries for the “Plant response rating, Monochoria” value with monochoria (250 g ai/ha) and in the assay on monochoria (500 g ai/ha) were 90 and 100, respectively. In addition, the “Plant response rating, Sprangletop, Brdd.” value with sprangletop, Brdd. (250 g ai/ha) came to 80; in the assay on sprangletop, Brdd. (500 g ai/ha) it was 85.
Take `CN1CC(c2ccc(F)cc2)C(C(=O)Nc2cccc(F)c2F)C1=O` (centres unmarked) [Compound 271]: the “Plant response rating, Monochoria” value in the assay on monochoria (64 g ai/ha) came to 85; in the assay with monochoria (125 g ai/ha) it was 100; in the assay with monochoria (250 g ai/ha), 100; in the assay with monochoria (500 g ai/ha), 100. Further, the “Plant response rating, Sprangletop, Brdd.” value with sprangletop, Brdd. (64 g ai/ha) is 20; in the assay with sprangletop, Brdd. (125 g ai/ha), 30; with sprangletop, Brdd. (250 g ai/ha), 80; with sprangletop, Brdd. (500 g ai/ha) it was 95.
With `O=C1NCC(c2ccc(F)c(F)c2)C1C(=O)Nc1cccc(F)c1` (racemic) [Compound 12], the Plant response rating in the assay with foxtail, green (Postemergence, 16 g ai/ha) amounted to 0; with foxtail, green (Postemergence, 31 g ai/ha), 0; in the assay on foxtail, green (Postemergence, 62 g ai/ha) it was 10; in the assay with foxtail, green (Postemergence, 125 g ai/ha), 20; in the assay on foxtail, green (Postemergence, 250 g ai/ha), 25; in the assay on foxtail, green (Preemergence, 125 g ai/ha), 0. The Plant response rating in the assay on foxtail, green (Preemergence, 250 g ai/ha) came to 0. For the same compound, the “Plant response rating, Foxtail, Green” value in the assay on foxtail, green (Preemergence, 31 g ai/ha) is 0; in the assay with foxtail, green (Preemergence, 62 g ai/ha), 0; in the assay on foxtail, green (Preemergence, 16 g ai/ha), 0.
With `O=C1NCC(c2cc(F)c(F)c(F)c2)C1C(=O)Nc1ccccc1C(F)(F)F` (racemic) [Compound 33], the Plant response rating in the assay with foxtail, green (Postemergence, 16 g ai/ha) amounted to 0; with foxtail, green (Postemergence, 31 g ai/ha) it was 0; in the assay with foxtail, green (Postemergence, 62 g ai/ha), 0; in the assay with foxtail, green (Postemergence, 125 g ai/ha), 0; in the assay on foxtail, green (Postemergence, 250 g ai/ha) it was 0.
Turning to `O=C1NCC(c2cccc(C(F)(F)F)c2)C1C(=O)Nc1cccc(F)c1F` (centres unmarked) [Compound 241], the “Plant response rating, Foxtail, Green” value with foxtail, green (Preemergence, 31 g ai/ha) came out at 35; in the assay with foxtail, green (Preemergence, 62 g ai/ha), 90; in the assay with foxtail, green (Preemergence, 125 g ai/ha), 90. Further, in the assay with foxtail, green (Preemergence, 250 g ai/ha), the Plant response rating is reported as 90.
On to `O=C1NCC(c2cccc(C(F)(F)F)c2)C1C(=O)Nc1ccc(F)cc1F` (racemic) [Compound 207], for which the “Plant response rating, Foxtail, Green” value with foxtail, green (Preemergence, 31 g ai/ha) was 15; in the assay with foxtail, green (Preemergence, 62 g ai/ha), 60; in the assay on foxtail, green (Preemergence, 125 g ai/ha), 75. This compound also had a Plant response rating with foxtail, green (Preemergence, 250 g ai/ha) of 90. Further, the “Plant response rating, Monochoria” value in the assay with monochoria (125 g ai/ha) amounted to 65; with monochoria (250 g ai/ha) it was 100; with monochoria (500 g ai/ha), 100. Further, the “Plant response rating, Sprangletop, Brdd.” value is given as 100 in the assay with sprangletop, Brdd. (125 g ai/ha); 100 in the assay on sprangletop, Brdd. (250 g ai/ha); 100 in the assay with sprangletop, Brdd. (500 g ai/ha).
As to `O=C1NCC(c2ccc(C(F)(F)F)c(F)c2)C1C(=O)Nc1cccc(F)c1F` (racemic) [Compound 247], the “Plant response rating, Monochoria” value is listed as 70 in the assay on monochoria (125 g ai/ha); 70 with monochoria (250 g ai/ha); 75 in the assay on monochoria (500 g ai/ha); 75 with monochoria (1000 g ai/ha); 75 in the assay with monochoria (2000 g ai/ha). Besides, the “Plant response rating, Sprangletop, Brdd.” value in the assay on sprangletop, Brdd. (125 g ai/ha) is on record as 90; with sprangletop, Brdd. (250 g ai/ha), 95; in the assay on sprangletop, Brdd. (500 g ai/ha), 98; in the assay on sprangletop, Brdd. (1000 g ai/ha), 98; in the assay with sprangletop, Brdd. (2000 g ai/ha), 98.
`O=C1NCC(c2cc(F)c(F)c(F)c2)C1C(=O)Nc1ccccc1F` (racemic) [Compound 34]: the Plant response rating in the assay on foxtail, green (Postemergence, 16 g ai/ha) stood at 0; in the assay on foxtail, green (Postemergence, 31 g ai/ha), 0; in the assay with foxtail, green (Postemergence, 62 g ai/ha) it was 0; in the assay with foxtail, green (Postemergence, 125 g ai/ha) it was 0; in the assay on foxtail, green (Postemergence, 250 g ai/ha), 0.
